Results on eight compounds are retold here after PubChem BioAssay (NCI).

Among the test systems are MDA-MB-435; SW-620 colon; UO-31 renal; HT29 colon; HCT-116 colon; A549 NSCLC; RXF 393 renal; SK-MEL-28 melanoma; LOX IMVI melanoma; NCI-H23 lung.
Test in all cases: growth of human tumour cells (NCI), 48 h

Several values for one entry are separate records, joined by “and”; a condition that tells them apart may be missing. Identical values can stand only once.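 A five-concentration, 48-hour dose response in 96-well plates underlies each endpoint, interpolated linearly between surrounding concentrations. GI50 is the concentration that inhibits growth by half. TGI: concentration producing complete growth inhibition.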 Bounds are passed on as bounds.

For `Cc1cc(N2CCN(C)CC2)nc(NCc2cc(Nc3ccnc4cc(Cl)ccc34)ccc2F)n1`, the GI50 in the test with MDA-MB-435 was 1.76 µM; in the test on SW-620 colon, 1.85 µM; in the test with UO-31 renal it was 1.76 µM; in the test with HT29 colon, 1.24 µM; in the test with HCT-116 colon it was 1.5 µM; in the test on A549 NSCLC, 2.34 µM. Moreover, the GI50 was 1.63 µM in the test on RXF 393 renal, 1.67 µM in the test on SK-MEL-28 melanoma, 1.67 µM with LOX IMVI melanoma and 3.46 µM with NCI-H23 lung. Also, the TGI in the test with MDA-MB-435 is 3.9 µM; with SW-620 colon, 4.01 µM; in the test with UO-31 renal, 3.72 µM; in the test with HT29 colon it was 3.38 µM; in the test with HCT-116 colon it was 3.3 µM; in the test on A549 NSCLC it was 5.3 µM. Besides, the TGI in the test on RXF 393 renal was 3.82 µM; with SK-MEL-28 melanoma, 3.28 µM; in the test with LOX IMVI melanoma, 3.14 µM; in the test with NCI-H23 lung it was greater than 100 µM.
Regarding `Cn1cc(C2=C(c3c4n(c5ccccc35)CCCC4)C(=O)NC2=O)c2ccccc21`, the GI50 with MDA-MB-435 is 1.08 µM; in the test with SW-620 colon it was 8.74 µM; with UO-31 renal it was 11.3 µM; with HT29 colon it was 9.39 µM; with HCT-116 colon it was 11.4 µM; with A549 NSCLC, 12.5 µM. Besides, the GI50 is 5.86 µM with RXF 393 renal, greater than 21.8 µM in the test on SK-MEL-28 melanoma, 16.6 µM in the test with LOX IMVI melanoma and greater than 18.2 µM with NCI-H23 lung. For the same compound, the TGI in the test on MDA-MB-435 was greater than 15.2 µM; in the test with SW-620 colon, greater than 25 µM; in the test with UO-31 renal it was greater than 25 µM; with HT29 colon, greater than 25 µM; with HCT-116 colon, greater than 25 µM; in the test on A549 NSCLC, greater than 25 µM. Further, the TGI in the test on RXF 393 renal is greater than 16.1 µM; with SK-MEL-28 melanoma it was greater than 25 µM; in the test on LOX IMVI melanoma it was greater than 25 µM; with NCI-H23 lung it was greater than 25 µM.
Turning to `CC(N=C(N)N)C(=O)O` (stereo not given), the TGI in the test with MDA-MB-435, in the test on SW-620 colon, in the test with UO-31 renal, in the test on HT29 colon, in the test with HCT-116 colon and with A549 NSCLC was greater than 100 µM each time. Moreover, the TGI with RXF 393 renal, in the test with SK-MEL-28 melanoma, with LOX IMVI melanoma and in the test on NCI-H23 lung was greater than 100 µM in each case.
With `COc1cc2ccccc2c2cc([N+](=O)[O-])oc12`, the TGI in the test with MDA-MB-435 came to 0.733 µM; in the test on SW-620 colon it was 15 µM; in the test with UO-31 renal, 3.1 µM; in the test with HT29 colon, 21.9 µM; in the test on HCT-116 colon it was 10.3 µM; with A549 NSCLC, 22.7 µM. Further, the TGI is 0.844 µM in the test on RXF 393 renal, 0.695 µM in the test with SK-MEL-28 melanoma, 3.93 µM in the test with LOX IMVI melanoma and 4.18 µM with NCI-H23 lung.
Turning to `COc1cc2c(c(OC)c1OC)C(=O)CC(c1cccc(NC(=O)c3ccc(Br)cc3)c1)O2` (stereo not given), the GI50 in the test on MDA-MB-435 is 1.46 µM; with SW-620 colon, 3.83 µM; with UO-31 renal, 1.49 µM; with HT29 colon, 2.77 µM; in the test on HCT-116 colon it was 2.63 µM; in the test with A549 NSCLC it was 3.57 µM. Also, the GI50 in the test on RXF 393 renal is 4.07 µM; in the test with SK-MEL-28 melanoma, 2.98 µM; in the test on LOX IMVI melanoma, 2.41 µM; with NCI-H23 lung it was 2.87 µM. For the same compound, the TGI with MDA-MB-435 was 4.46 µM; in the test on SW-620 colon, greater than 100 µM; with UO-31 renal it was greater than 100 µM; in the test with HT29 colon it was greater than 100 µM; in the test with HCT-116 colon it was greater than 100 µM; in the test with A549 NSCLC it was greater than 100 µM. The TGI in the test on RXF 393 renal, in the test with SK-MEL-28 melanoma, with LOX IMVI melanoma and in the test on NCI-H23 lung was greater than 100 µM in each case.
Take `O=S(=O)(Nc1cc(Br)c(O)c2ccccc12)c1ccc(F)cc1`: the GI50 is 1.82 µM in the test with MDA-MB-435; 2.45 µM with SW-620 colon; 2.15 µM in the test on UO-31 renal; 18.2 µM in the test with HT29 colon; 2.33 µM with HCT-116 colon; 8.3 µM in the test with A549 NSCLC. Further, the GI50 with RXF 393 renal was 3.69 µM; with SK-MEL-28 melanoma, 2.46 µM; with LOX IMVI melanoma it was 2.07 µM; with NCI-H23 lung, 2.8 µM. Further, the TGI in the test with MDA-MB-435 was 3.3 µM; in the test with SW-620 colon it was 7.65 µM; in the test with UO-31 renal it was 11.6 µM; in the test on HT29 colon, greater than 100 µM; in the test with HCT-116 colon, 6.44 µM; in the test on A549 NSCLC it was 26.7 µM. The TGI in the test with RXF 393 renal worked out at 14.1 µM; with SK-MEL-28 melanoma, 5.39 µM; with LOX IMVI melanoma, 4.88 µM; in the test on NCI-H23 lung it was 7.87 µM.
In the case of `COc1ccc(Cl)cc1Nc1nc(C(F)(F)F)ccc1C(=O)N/N=C/c1ccc([N+](=O)[O-])cc1`, the GI50 is 2.66 µM in the test with MDA-MB-435; 2.77 µM in the test on SW-620 colon; 1.77 µM in the test on UO-31 renal; 2.2 µM in the test on HT29 colon; 2.45 µM in the test with HCT-116 colon; 3.41 µM in the test with A549 NSCLC. Further, the GI50 in the test with RXF 393 renal is 1.28 µM; in the test on SK-MEL-28 melanoma it was 2.79 µM; in the test on LOX IMVI melanoma, 1.39 µM; with NCI-H23 lung, 2.05 µM. For the same compound, the TGI in the test with MDA-MB-435 is 13.1 µM; with SW-620 colon, greater than 100 µM; in the test on UO-31 renal it was 5.97 µM; in the test with HT29 colon, 5.49 µM; in the test with HCT-116 colon, 14.7 µM; in the test with A549 NSCLC it was 52.7 µM. Also, the TGI is 6.04 µM in the test on RXF 393 renal, greater than 100 µM with SK-MEL-28 melanoma, 4.79 µM in the test on LOX IMVI melanoma and 7.52 µM in the test on NCI-H23 lung.
For `COC(=O)CCC(C)[C@H]1CCC2C3C(C[C@H](OC(C)=O)[C@@]21C)[C@@]1(C)CCC2(C[C@H]1C[C@H]3OC(C)=O)OOC1(CCC(C)CC1)OO2` (stereo not given in full), the GI50 in the test with MDA-MB-435 was 10.9 µM and 43.4 µM; in the test with SW-620 colon, 4.68 µM and 31.4 µM; in the test on UO-31 renal it was 4.13 µM and 11.2 µM; in the test with A549 NSCLC it was 3.89 µM and 13.4 µM; with NCI-H23 lung, 7.74 µM and 15.6 µM. For the same compound, the TGI in the test with MDA-MB-435 is greater than 100 µM; in the test on SW-620 colon it was greater than 100 µM; with UO-31 renal, 17.8 µM and 36.4 µM; in the test on HT29 colon it was greater than 100 µM; with HCT-116 colon, greater than 100 µM; in the test with A549 NSCLC it was 25.4 µM and > 100 µM. Besides, the TGI with RXF 393 renal, with SK-MEL-28 melanoma, in the test with LOX IMVI melanoma and in the test with NCI-H23 lung was greater than 100 µM each time.
